{
  "source": "patent US12097213B2",
  "about": "“Sequential treatment of cancers using 6-thio-dG, checkpoint inhibitors and radiation therapy” (The Board of Regents of the University of Texas System, priority 2020, dated 2024)",
  "assay_type_in_all_cases": "in vivo, mouse",
  "key": {"[1]": {"test_system": "LLC murine lung tumor cells", "assay": "LLC tumor growth and treatment in mice", "protocol": "Tumor growth and treatment. A total of 5×10^5 MC38, 5×10^5 CT26 or 1×10^6 LLC cells were inoculated subcutaneously into right dorsal flanks of the mice in 100 μL phosphate buffered saline (PBS). Tumor-bearing mice were randomly grouped into treatment groups when tumors grew to around 100 mm^3. […] For CSF1R, NKL.1, CD4+ and CD8+ T cell depletion, 200 μg of antibodies were intraperitoneally injected 1 day before treatment initiation and then twice a week for 2 weeks. For PD-L1 blockade combination therapy in MC38 model, 6-thio-dG was given on day 10 and day 11, 50 μg PD-L1 was intraperitoneally injected on day 13 and 17. For PD-L1 blockade combination therapy in LLC model, 6-thio-dG was given on day 4, 5, 6, 10 and 11, 200 μg PD-L1 was intraperitoneally injected on day 8 and 13. Tumor volumes were measured by the length (a), width (b) and height (h) and calculated as tumor volume=abh/2."}, "tumor-specific T cells": {"test_system": "tumor-specific T cells", "assay": "IFN-γ ELISPOT of splenocytes / draining lymph node cells", "conditions": "advanced MC38 tumors; stimulated with irradiated MC38 tumor cells", "protocol": "IFN-γ enzyme-linked immunosorbent spot assay (ELISPOT). MC38 tumors were injected subcutaneously on the right flank of C57BL/6. For 6-thio-dG single treatment, 3 mg/kg 6-thio-dG was intraperitoneally given on days 7, 8 and 9; for PD-L1 blockade combination therapy in MC38 model, 3 mg/kg 6-thio-dG was given on day 10 and day 11, 50 μg PD-L1 was intraperitoneally injected on day 11. 7 days after last treatment, tumor draining lymphoid and spleen from tumor-bearing mice were collected and single-cell suspension was prepared. Irradiated MC38 tumor cells and control LLC tumor cells were used to re-stimulate the tumor-specific T cells. 1.5×10^5 draining lymph nodes cells or splenocytes and 7.5×10^4 irradiated tumor cells were co-cultured for 48 hrs, and ELISPOT assay was performed using the IFN-γ ELISPOT kit (BD Bioscience) according to the manufacturer's instructions. IFN-γ spots were enumerated with the CTL-ImmunoSpot® S6 Analyzer (Cellular Technology Limited)."}, "MC38 tumor cells": {"test_system": "MC38 tumor cells", "assay": "MC38 tumor growth and treatment in mice", "protocol": "Tumor growth and treatment. A total of 5×10^5 MC38, 5×10^5 CT26 or 1×10^6 LLC cells were inoculated subcutaneously into right dorsal flanks of the mice in 100 μL phosphate buffered saline (PBS). Tumor-bearing mice were randomly grouped into treatment groups when tumors grew to around 100 mm^3. For 6-thio-dG single treatment, 3 mg/kg 6-thio-dG was intraperitoneally given on days 7, 8 and 9 in MC38 tumor and LLC tumor and on days 5, 6, 7 for CT26 tumor. For CSF1R, NKL.1, CD4+ and CD8+ T cell depletion, 200 μg of antibodies were intraperitoneally injected 1 day before treatment initiation and then twice a week for 2 weeks. For PD-L1 blockade combination therapy in MC38 model, 6-thio-dG was given on day 10 and day 11, 50 μg PD-L1 was intraperitoneally injected on day 13 and 17. For PD-L1 blockade combination therapy in LLC model, 6-thio-dG was given on day 4, 5, 6, 10 and 11, 200 μg PD-L1 was intraperitoneally injected on day 8 and 13. Tumor volumes were measured by the length (a), width (b) and height (h) and calculated as tumor volume=abh/2."}},
  "data": [
    {"substance": "anti-PD-L1: fully humanized, engineered monoclonal antibody of IgG1 isotype against PD-L1 (Atezolizumab) [reference compound]", "values": [
      {"measurement": "tumor burden", "setting": "[1]; PD-L1 blockade resistant LLC model, 6-thio-dG 3 mg/kg days 4, 5, 6, 10, 11, 200 μg anti-PD-L1 days 8 and 13", "value": "no therapeutic effect"},
      {"measurement": "tumor growth (FIG. 8A)", "setting": "[1]; lewis lung carcinoma, three days 6-thio-dG followed two days later with anti-PD-L1", "value": "same rapid tumor growth"},
      {"measurement": "tumor-specific T cell response in draining lymph nodes (IFN-γ production)", "setting": "tumor-specific T cells", "value": "little effect"},
      {"measurement": "MC38 tumors in LLC cured mice", "setting": "MC38 tumor cells; LLC cured mice injected with MC38", "value": "had no affect"},
      {"measurement": "tumor volume / tumor growth in advanced tumors", "setting": "MC38 tumor cells; tumor sizes 150-200 mm^3, 6-thio-dG 3 mg/kg days 10, 11, 50 μg anti-PD-L1 days 13 and 17", "value": "difficult to control"}
    ]}
  ]
}
